Test [1] has as its target GDP-bound HRAS wild-type protein (Homo sapiens, UniProt P01112). The test is described as follows: Binding to HRAS by surface plasmon resonance (SPR), Single Cycle Kinetics. The conditions noted are these: KD ratio HRAS/KRAS, SPR.
The target in test [2] is GDP-bound NRAS wild-type protein (Homo sapiens, UniProt P01111). Briefly: Binding to NRAS by surface plasmon resonance (SPR), Single Cycle Kinetics. The conditions noted are these: KD ratio NRAS/KRAS, SPR.

SMILES strings stand for the structures. Where a SMILES comes first, the peptide text is derived from it. Bridges are numbered along the chain shown (N, C = ends). [ ]: non-standard residue; d: D form. The star is where a group is joined. hPhe(3-Cl-4-CF3) = N[C@@H](CCc1ccc(C(F)(F)F)c(Cl)c1)C(=O)O; NPrPhe(4-CF3) = CCCN[C@@H](Cc1ccc(C(F)(F)F)cc1)C(=O)O; NMeGly(cPent) = CN[C@H](C(=O)O)C1CCCC1; Pro(4,4-F2) = O=C(O)[C@@H]1CC(F)(F)CN1; Hyp = O=C(O)[C@@H]1C[C@@H](O)CN1; NMeD = CN[C@@H](CC(=O)O)C(=O)O; NMeL = CN[C@@H](CC(C)C)C(=O)O; Morpholide = C1CN(*)CCO1; Ac5c = NC1(C(=O)O)CCCC1; Aze = O=C(O)[C@@H]1CCN1; Ac4c = NC1(C(=O)O)CCC1; NEtG = CCNCC(=O)O; Sar = CNCC(=O)O

Chain of GDP-bound NRAS wild-type protein (P01111 whole entry): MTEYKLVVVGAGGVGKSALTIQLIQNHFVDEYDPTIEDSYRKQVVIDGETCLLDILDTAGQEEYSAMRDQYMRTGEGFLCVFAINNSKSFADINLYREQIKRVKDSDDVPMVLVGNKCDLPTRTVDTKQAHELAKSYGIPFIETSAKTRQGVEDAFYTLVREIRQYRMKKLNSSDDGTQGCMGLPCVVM
Chain of GDP-bound HRAS wild-type protein (P01112 whole entry): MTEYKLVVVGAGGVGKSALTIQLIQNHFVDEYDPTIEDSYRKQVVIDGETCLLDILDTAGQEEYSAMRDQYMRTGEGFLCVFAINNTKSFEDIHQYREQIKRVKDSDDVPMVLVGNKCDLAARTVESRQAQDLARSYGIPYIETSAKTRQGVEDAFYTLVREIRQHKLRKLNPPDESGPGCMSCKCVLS

With `CCCN1C(=O)CN(C)C(=O)CNC(=O)[C@H]([C@@H](C)CC)NC(=O)[C@H](CC(C)C)N(C)C(=O)C[C@@H](C(=O)N2CCOCC2)N(C)C(=O)[C@H](C2CCCC2)N(C)C(=O)C2(CCC2)NC(=O)[C@@H]2CC(F)(F)CN2C(=O)[C@H](CCc2ccc(C(F)(F)F)c(Cl)c2)NC(=O)CN(C)C(=O)[C@@H]1Cc1ccc(C(F)(F)F)cc1` [PP0395] ([NMeL]IG[Sar][NPrPhe(4-CF3)][Sar][hPhe(3-Cl-4-CF3)][Pro(4,4-F2)][Ac4c][NMeGly(cPent)][NMeD]-Morpholide; lactam N-11), the “HRAS/KRAS (ratio of KD for GDP-bound HRAS wild-type to KD for KRAS)” value in test [1] is “C (A compound having a KD ratio of 0.1 or more and less than 3 is denoted as C)”. Also, the “NRAS/KRAS (ratio of KD for GDP-bound NRAS wild-type to KD for KRAS)” value in test [2] was “B (a compound having 3 or more and less than 10 is denoted as B)”.

Consider `CCCN1C(=O)CN(C)C(=O)CNC(=O)[C@H]([C@@H](C)CC)NC(=O)[C@H](CC(C)C)N(C)C(=O)C[C@@H](C(=O)N2CCOCC2)N(C)C(=O)[C@H](C2CCCC2)N(C)C(=O)C2(CCCC2)NC(=O)[C@@H]2C[C@@H](OCC)CN2C(=O)[C@H](CCc2ccc(C(F)(F)F)c(Cl)c2)NC(=O)CN(C)C(=O)[C@@H]1Cc1ccc(C(F)(F)F)cc1` [PP0396] ([NMeL]IG[Sar][NPrPhe(4-CF3)][Sar][hPhe(3-Cl-4-CF3)][Hyp](Et)[Ac5c][NMeGly(cPent)][NMeD]-Morpholide; lactam N-11), for which the “HRAS/KRAS (ratio of KD for GDP-bound HRAS wild-type to KD for KRAS)” value in test [1] is “C (A compound having a KD ratio of 0.1 or more and less than 3 is denoted as C)”. In addition, in test [2], the “NRAS/KRAS (ratio of KD for GDP-bound NRAS wild-type to KD for KRAS)” value is “B (a compound having 3 or more and less than 10 is denoted as B)”.

On to `CCCN1C(=O)CN(C)C(=O)CNC(=O)[C@H]([C@@H](C)CC)NC(=O)[C@H](CC(C)C)N(C)C(=O)C[C@@H](C(=O)N2CCOCC2)N(C)C(=O)[C@H](C2CCCC2)N(C)C(=O)C2(CCC2)NC(=O)[C@@H]2C[C@@H](OCC)CN2C(=O)[C@H](CCc2ccc(C(F)(F)F)c(Cl)c2)NC(=O)CN(C)C(=O)[C@@H]1Cc1ccc(C(F)(F)F)cc1` [PP0397] ([NMeL]IG[Sar][NPrPhe(4-CF3)][Sar][hPhe(3-Cl-4-CF3)][Hyp](Et)[Ac4c][NMeGly(cPent)][NMeD]-Morpholide; lactam N-11), for which the “HRAS/KRAS (ratio of KD for GDP-bound HRAS wild-type to KD for KRAS)” value in test [1] is “C (A compound having a KD ratio of 0.1 or more and less than 3 is denoted as C)”. In addition, the “NRAS/KRAS (ratio of KD for GDP-bound NRAS wild-type to KD for KRAS)” value in test [2] was “C (A compound having a KD ratio of 0.1 or more and less than 3 is denoted as C)”.

Turning to `CCCN1C(=O)CN(C)C(=O)CN(CC)C(=O)[C@H]([C@@H](C)CC)NC(=O)[C@H](CC(C)C)N(C)C(=O)C[C@@H](C(=O)N2CCOCC2)N(C)C(=O)[C@H](C2CCCC2)N(C)C(=O)C2(CCC2)NC(=O)[C@@H]2CCCN2C(=O)[C@H](CCc2ccc(C(F)(F)F)c(Cl)c2)NC(=O)CN(C)C(=O)[C@@H]1Cc1ccc(C(F)(F)F)cc1` [PP0398] ([NMeL]I[NEtG][Sar][NPrPhe(4-CF3)][Sar][hPhe(3-Cl-4-CF3)]P[Ac4c][NMeGly(cPent)][NMeD]-Morpholide; lactam N-11), the “HRAS/KRAS (ratio of KD for GDP-bound HRAS wild-type to KD for KRAS)” value in test [1] was “C (A compound having a KD ratio of 0.1 or more and less than 3 is denoted as C)”. In test [2], the “NRAS/KRAS (ratio of KD for GDP-bound NRAS wild-type to KD for KRAS)” value was “B (a compound having 3 or more and less than 10 is denoted as B)”.

As to `CCCN1C(=O)CN(C)C(=O)CN(CC)C(=O)[C@H]([C@@H](C)CC)NC(=O)[C@H](CC(C)C)N(C)C(=O)C[C@@H](C(=O)N2CCOCC2)N(C)C(=O)[C@H](C2CCCC2)N(C)C(=O)C2(CCCC2)NC(=O)[C@@H]2CC(F)(F)CN2C(=O)[C@H](CCc2ccc(C(F)(F)F)c(Cl)c2)NC(=O)CN(C)C(=O)[C@@H]1Cc1ccc(C(F)(F)F)cc1` [PP0399] ([NMeL]I[NEtG][Sar][NPrPhe(4-CF3)][Sar][hPhe(3-Cl-4-CF3)][Pro(4,4-F2)][Ac5c][NMeGly(cPent)][NMeD]-Morpholide; lactam N-11), in test [1], the “HRAS/KRAS (ratio of KD for GDP-bound HRAS wild-type to KD for KRAS)” value was “C (A compound having a KD ratio of 0.1 or more and less than 3 is denoted as C)”. For the same molecule, the “NRAS/KRAS (ratio of KD for GDP-bound NRAS wild-type to KD for KRAS)” value in test [2] is “B (a compound having 3 or more and less than 10 is denoted as B)”.

For `CCCN1C(=O)CN(C)C(=O)CN(CC)C(=O)[C@H]([C@@H](C)CC)NC(=O)[C@H](CC(C)C)N(C)C(=O)C[C@@H](C(=O)N2CCOCC2)N(C)C(=O)[C@H](C2CCCC2)N(C)C(=O)C2(CCC2)NC(=O)[C@@H]2CC(F)(F)CN2C(=O)[C@H](CCc2ccc(C(F)(F)F)c(Cl)c2)NC(=O)CN(C)C(=O)[C@@H]1Cc1ccc(C(F)(F)F)cc1` [PP0400] ([NMeL]I[NEtG][Sar][NPrPhe(4-CF3)][Sar][hPhe(3-Cl-4-CF3)][Pro(4,4-F2)][Ac4c][NMeGly(cPent)][NMeD]-Morpholide; lactam N-11), the “HRAS/KRAS (ratio of KD for GDP-bound HRAS wild-type to KD for KRAS)” value in test [1] was “B (a compound having 3 or more and less than 10 is denoted as B)”. Besides, the “NRAS/KRAS (ratio of KD for GDP-bound NRAS wild-type to KD for KRAS)” value in test [2] was “B (a compound having 3 or more and less than 10 is denoted as B)”.

For `CCCN1C(=O)CN(C)C(=O)CN(CC)C(=O)[C@H]([C@@H](C)CC)NC(=O)[C@H](CC(C)C)N(C)C(=O)C[C@@H](C(=O)N2CCOCC2)N(C)C(=O)[C@H](C2CCCC2)N(C)C(=O)C2(CCC2)NC(=O)[C@@H]2C[C@@H](OCC)CN2C(=O)[C@H](CCc2ccc(C(F)(F)F)c(Cl)c2)NC(=O)CN(C)C(=O)[C@@H]1Cc1ccc(C(F)(F)F)cc1` [PP0401] ([NMeL]I[NEtG][Sar][NPrPhe(4-CF3)][Sar][hPhe(3-Cl-4-CF3)][Hyp](Et)[Ac4c][NMeGly(cPent)][NMeD]-Morpholide; lactam N-11), in test [1], the “HRAS/KRAS (ratio of KD for GDP-bound HRAS wild-type to KD for KRAS)” value is “B (a compound having 3 or more and less than 10 is denoted as B)”. In addition, the “NRAS/KRAS (ratio of KD for GDP-bound NRAS wild-type to KD for KRAS)” value in test [2] was “B (a compound having 3 or more and less than 10 is denoted as B)”.

As to `CCCN1C(=O)CN(C)C(=O)[C@@H]2CCN2C(=O)[C@H]([C@@H](C)CC)NC(=O)[C@H](CC(C)C)N(C)C(=O)C[C@@H](C(=O)N2CCOCC2)N(C)C(=O)[C@H](C2CCCC2)N(C)C(=O)C2(CCC2)NC(=O)[C@@H]2CCCN2C(=O)[C@H](CCc2ccc(C(F)(F)F)c(Cl)c2)NC(=O)CN(C)C(=O)[C@@H]1Cc1ccc(C(F)(F)F)cc1` [PP0402] ([NMeL]I[Aze][Sar][NPrPhe(4-CF3)][Sar][hPhe(3-Cl-4-CF3)]P[Ac4c][NMeGly(cPent)][NMeD]-Morpholide; lactam N-11), in test [1], the “HRAS/KRAS (ratio of KD for GDP-bound HRAS wild-type to KD for KRAS)” value was “C (A compound having a KD ratio of 0.1 or more and less than 3 is denoted as C)”. For the same molecule, the “NRAS/KRAS (ratio of KD for GDP-bound NRAS wild-type to KD for KRAS)” value in test [2] was “B (a compound having 3 or more and less than 10 is denoted as B)”.

`CCCN1C(=O)CN(C)C(=O)[C@@H]2CCN2C(=O)[C@H]([C@@H](C)CC)NC(=O)[C@H](CC(C)C)N(C)C(=O)C[C@@H](C(=O)N2CCOCC2)N(C)C(=O)[C@H](C2CCCC2)N(C)C(=O)C2(CCCC2)NC(=O)[C@@H]2CC(F)(F)CN2C(=O)[C@H](CCc2ccc(C(F)(F)F)c(Cl)c2)NC(=O)CN(C)C(=O)[C@@H]1Cc1ccc(C(F)(F)F)cc1` [PP0403] ([NMeL]I[Aze][Sar][NPrPhe(4-CF3)][Sar][hPhe(3-Cl-4-CF3)][Pro(4,4-F2)][Ac5c][NMeGly(cPent)][NMeD]-Morpholide; lactam N-11): the “HRAS/KRAS (ratio of KD for GDP-bound HRAS wild-type to KD for KRAS)” value in test [1] was “B (a compound having 3 or more and less than 10 is denoted as B)”. In addition, the “NRAS/KRAS (ratio of KD for GDP-bound NRAS wild-type to KD for KRAS)” value in test [2] is “B (a compound having 3 or more and less than 10 is denoted as B)”.

Values taken from patent publication US20250230193A1, “CYCLIC COMPOUND HAVING SELECTIVE KRAS INHIBITORY EFFECT ON HRAS AND NRAS” (CHUGAI SEIYAKU KABUSHIKI KAISHA, priority 2022, published 2025).
